Laboratory results as given in patent US12691070B2, “Cationic lipids and preparation method thereof” (RiboX Therapeutics HK Limited, priority 2023, dated 2026).

How the values were obtained:
[1] = LNP size and polydispersity index (PDI) by dynamic light scattering; type: physicochemical; settings: LNP with cirRNA (SEQ ID NO: 1); for Size: in nm (unit assumed)
How it was run: (§1)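 Dynamic light scattering and zeta potential measurements were run on PBS-dialyzed LNPs, which had been formed by microfluidic mixing at 12 ml/min with final lipid at 1.5 mM to 6 mM. RNA content and percent encapsulation were determined by Ribogreen with and without Triton X-100.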

[2] = LNP zeta potential (Zetasizer); type: physicochemical; settings: LNP with cirRNA (SEQ ID NO: 1)
How it was run: as §1

[3] = RNA encapsulation efficacy by Quant-IT Ribogreen kit; type: physicochemical; settings: LNP with cirRNA (SEQ ID NO: 1)
How it was run: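 Ribogreen fluorescence with and without Triton X-100 gave encapsulation as 100% − (intact/lysed) signal; DLS size, PDI and zeta potential measured on a Zetasizer. Particles: 50:10:38.5:1.5 lipid mix, luciferase circRNA or mRNA, lipid:nucleotide 15 or 6, microfluidic assembly at pH 4.5, PBS-dialyzed.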

Hep G2 cells [4] = test: In vitro expression of firefly-luciferase, Hep G2; type: cell-based; settings: cirRNA (SEQ ID NO: 1) LNPs; firefly-luciferase luminescence; Hep G2 cells
How it was run: (§2)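 Luminescence from cell lysates reports expression: luciferase activity was measured 72 h after transfection with 100 ng/mL RNA-LNPs encoding firefly luciferase.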

RAW 264.7 cells [5] = test: In vitro expression of firefly-luciferase, RAW 264.7; type: cell-based; settings: cirRNA (SEQ ID NO: 1) LNPs; firefly-luciferase luminescence; RAW 264.7 cells
How it was run: as §2

Hep G2 cells [6] = test: In vitro toxicity (CellTiter-Glo cell viability), Hep G2; type: cell-based; settings: cirRNA (SEQ ID NO: 1) LNPs; Hep G2 cells;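 also: percent of untreated cells luminescence signal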
How it was run: (§3)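 Luminescent ATP read-out (CellTiter-Glo) gives the viability value, taken 72 h after cells were exposed to RNA-loaded lipid nanoparticles at 1 μg/mL.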

RAW 264.7 cells [7] = test: In vitro toxicity (CellTiter-Glo cell viability), RAW 264.7; type: cell-based; settings: cirRNA (SEQ ID NO: 1) LNPs; RAW 264.7 cells;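 also: percent of untreated cells luminescence signal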
How it was run: as §3

BALB/C mice = test: In vivo expression, whole-body luminescence (IVIS); settings: cirRNA (SEQ ID NO: 1) LNPs, BALB/C mice
Protocol: 6-8 week old, female BALB/C mice were injected with 0.05 mg*kg-1 of RNA-LNPs encoding for firefly-luciferase by intravenous injection. At 6 hours post injection, animals were intraperitoneally injected with 15 mg/ml of Luciferin substrate and whole-body luminescence was determined by a bioluminescent in vivo imaging system (IVIS).

Compound | PDI [1] | Size [1] | Zeta (mV) [2] | Encapsulation Efficiency % [3] | In vitro Expression HepG2 (Hep G2 cells [4]) | In vitro Expression RAW (RAW 264.7 cells [5]) | In vitro Viability HepG2 (Hep G2 cells [6]) | In vitro Viability RAW (RAW 264.7 cells [7]) | In vivo Expression (Whole Body) (BALB/C mice)
CCCCCCCC/C=C\CCCCCCCCN(CCCCCCCCOC(=O)C(CCCCCC)CCCCCCCC)CCOC(=O)NCCN1CCCCC1 (stereo not drawn) [Lipid 219] | 0.1125 | 76.57 | 0.7668 mV | 93% | 7.09E+05 | 3.53E+04 | 58% | 80% | 1.34E+08
CCCCCCCCCCCOC(=O)CCCCCN(CCCCCCCCOC(=O)C(CCCCCC)CCCCCCCC)CCOC(=O)NCCN(C)C (stereo not drawn) [Lipid 220] | 0.304 | 112.7 | 10.78 mV | 96% | 3.55E+06 | 1.52E+04 | 89% | 98% | 1.45E+07
CCCCCCCCCCCOC(=O)CCCCCN(CCCCCCCCOC(=O)C(CCCCCC)CCCCCCCC)CCOC(=O)NCc1ncc[nH]1 (stereo not drawn) [Lipid 221] | 0.1852 | 65.7 | −1.368 mV | 91% | 2.82E+05 | 5.03E+05 | 87% | 83% | 1.79E+07
CCCCCCCCCCCOC(=O)CCCCCN(CCCCCCCCOC(=O)C(CCCCCC)CCCCCCCC)CCOC(=O)NCCN1CCN(C)CC1 (stereo not drawn) [Lipid 222] | 0.4109 | 98.73 | 26.75 mV | 97% | 1.63E+06 | 8.85E+04 | 42% | 87% | 1.59E+06
CCCCCCCCCCCOC(=O)CCCCCN(CCCCCCCCOC(=O)C(CCCCCC)CCCCCCCC)CCOC(=O)NCCN1CCOCC1 (stereo not drawn) [Lipid 223] | 0.08837 | 60.01 | −2.046 mV | 92% | 6.42E+04 | 4.76E+04 | 92% | 76% | 5.53E+06
CCCCCCCCCCCOC(=O)CCCCCN(CCCCCCCCOC(=O)C(CCCCCC)CCCCCCCC)CCOC(=O)NCCCN(C)C (stereo not drawn) [Lipid 224] | 0.4284 | 86.14 | 27.23 mV | 97% | 3.58E+05 | 6.89E+03 | 90% | 73% | 5.05E+05
CCCCCCCCCCCOC(=O)CCCCCN(CCCCCCCCOC(=O)C(CCCCCC)CCCCCCCC)CCOC(=O)NCCN1CCCC1 (stereo not drawn) [Lipid 226] | 0.298 | 115.7 | 14.86 mV | 95% | 7.79E+05 | 9.79E+03 | 91% | 108% | 2.20E+07
CCCCCCCCCCCOC(=O)CCCCCN(CCCCCCCCOC(=O)C(CCCCCC)CCCCCCCC)CCOC(=O)NCCN1CCCCC1 (stereo not drawn) [Lipid 227] | 0.1088 | 79.97 | 4.217 mV | 92% | 4.71E+05 | 1.99E+05 | 82% | 83% | 9.21E+07
CCCCC/C=C\CCOC(=O)CCCCCN(CCCCCC(=O)OCC(CCCCCCCC)CCCCCCCCCC)CCOC(=O)NCCN1CCCC1 (stereo not drawn) [Lipid 244] | 0.3577 | 87.4 | −0.164 mV | 96% | 3.62E+06 | 9.56E+02 | 94% | 90% | 3.95E+07
CCCCC/C=C\C/C=C\CCCCCCCCN(CCCCCCCC(=O)OC(CCCCCCCC)CCCCCCCC)CCCOC(=O)NCCCN(CC)CC [Lipid 272] | 0.3463 | 74.91 | 5.434 mV | 95% | 1.01E+07 | 1.34E+06 | 97% | 121% | 6.35E+06
CCCCC/C=C\C/C=C\CCCCCCCCN(CCCCCCCC(=O)OC(CCCCCCCC)CCCCCCCC)CCCOC(=O)NCCN1CCN(C)CC1 [Lipid 273] | 0.257 | 88.34 | 1.543 mV | 95% | 6.48E+06 | 1.35E+06 | 93% | 121% | 5.16E+06
CCCCC/C=C\C/C=C\CCCCCCCCN(CCCCCCCC(=O)OC(CCCCCCCC)CCCCCCCC)CCCOC(=O)NCCN1CCOCC1 [Lipid 274] | 0.112 | 50.6 | −2.714 mV | 94% | 4.11E+06 | 4.30E+05 | 97% | 127% | 2.06E+07
CCCCC/C=C\C/C=C\CCCCCCCCN(CCCCCCCC(=O)OC(CCCCCCCC)CCCCCCCC)CCCOC(=O)NCCCN(C)C [Lipid 275] | 0.2727 | 60 | 6.337 mV | 95% | 7.54E+06 | 4.30E+05 | 102% | 129% | 3.66E+06
